# System: 519858-162-T-J1-PDC complex spheroid viability
# Assay: Anticancer human tumor 519858-162-T-J1-PDC patient-derived colon adenocarcinoma cell line growth inhibition [GQUAD]
# Settings: for IC50: curve of first compound; for viability, T/C: stronger effect = lower value
# Summary of the method: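 Tumor cells were grown as complex spheroids with HUVEC endothelial cells and mesenchymal stem cells as stroma. G-quadruplex stabilizers were combined with targeted agents over half-log dilutions from near the clinical Cmax, or from 10 microM.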
# [1] = second compound 0.0316 µM, first compound 0.0316 µM
# [2] = second compound 0.0316 µM, first compound 0.1 µM
# [3] = second compound 0.0316 µM, first compound 0.316 µM
# [4] = second compound 0.0316 µM, first compound 1 µM
# [5] = second compound 0.0316 µM, first compound 3.16 µM
# [6] = second compound 0.0316 µM, first compound 10 µM
# [7] = second compound 0.1 µM, first compound 0.0316 µM
# [8] = second compound 0.1 µM, first compound 0.1 µM
# [9] = second compound 0.1 µM, first compound 0.316 µM
# [10] = second compound 0.1 µM, first compound 1 µM
# [11] = second compound 0.1 µM, first compound 3.16 µM
# [12] = second compound 0.1 µM, first compound 10 µM
# [13] = second compound 0.316 µM, first compound 0.0316 µM
# [14] = second compound 0.316 µM, first compound 0.1 µM
# [15] = second compound 0.316 µM, first compound 0.316 µM
# [16] = second compound 0.316 µM, first compound 1 µM
# [17] = second compound 0.316 µM, first compound 3.16 µM
# [18] = second compound 0.316 µM, first compound 10 µM
# [19] = second compound 1 µM, first compound 0.0316 µM
# [20] = second compound 1 µM, first compound 0.1 µM
# [21] = second compound 1 µM, first compound 0.316 µM
# [22] = second compound 1 µM, first compound 1 µM
# [23] = second compound 1 µM, first compound 3.16 µM
# [24] = second compound 1 µM, first compound 10 µM
# [25] = second compound 3.16 µM, first compound 0.0316 µM
# [26] = second compound 3.16 µM, first compound 0.1 µM
# [27] = second compound 3.16 µM, first compound 0.316 µM
# [28] = second compound 3.16 µM, first compound 1 µM
# [29] = second compound 3.16 µM, first compound 3.16 µM
# [30] = second compound 3.16 µM, first compound 10 µM
# [31] = second compound 10 µM, first compound 0.0316 µM
# [32] = second compound 10 µM, first compound 0.1 µM
# [33] = second compound 10 µM, first compound 0.316 µM
# [34] = second compound 10 µM, first compound 1 µM
# [35] = second compound 10 µM, first compound 3.16 µM
# [36] = second compound 10 µM, first compound 10 µM
# 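Further: spheroids exposed to compounds for 7 days.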
# 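Wherever viability, T/C is given: 100% = DMSO vehicle control viability.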
structure (smiles),measurement,setting,value
COc1ncnc(C2CC2)c1-c1ncc2cnn(Cc3ccc(-c4nc(C(F)(F)F)cn4C(C)C)cc3)c2n1 + Cc1cnc(CNC(=O)c2c(=O)c3ccc(N4CCCN(C)CC4)nc3n3c2sc2ccccc23)cn1,IC50,second compound 0.0316 µM,> 10 µM
same,IC50,second compound 0.1 µM,> 10 µM
same,IC50,second compound 0.316 µM,8.6 µM
same,IC50,second compound 1 µM,0.809 µM
same,IC50,second compound 3.16 µM,< 0.0316 µM
same,IC50,second compound 10 µM,< 0.0316 µM
same,"viability, T/C",[1],87.7%
same,"viability, T/C",[2],65.6%
same,"viability, T/C",[3],88.7%
same,"viability, T/C",[4],79.3%
same,"viability, T/C",[5],90.6%
same,"viability, T/C",[6],67.6%
same,"viability, T/C",[7],85.6%
same,"viability, T/C",[8],74.8%
same,"viability, T/C",[9],97.7%
same,"viability, T/C",[10],77.9%
same,"viability, T/C",[11],97.2%
same,"viability, T/C",[12],54%
same,"viability, T/C",[13],72.4%
same,"viability, T/C",[14],54.8%
same,"viability, T/C",[15],64.1%
same,"viability, T/C",[16],67.5%
same,"viability, T/C",[17],45.5%
same,"viability, T/C",[18],50.4%
same,"viability, T/C",[19],55.7%
same,"viability, T/C",[20],54.1%
same,"viability, T/C",[21],47.6%
same,"viability, T/C",[22],47.8%
same,"viability, T/C",[23],49.1%
same,"viability, T/C",[24],53.3%
same,"viability, T/C",[25],49.2%
same,"viability, T/C",[26],40.1%
same,"viability, T/C",[27],46%
same,"viability, T/C",[28],30.3%
same,"viability, T/C",[29],63.7%
same,"viability, T/C",[30],48.6%
same,"viability, T/C",[31],35.8%
same,"viability, T/C",[32],55.3%
same,"viability, T/C",[33],48.5%
same,"viability, T/C",[34],26.8%
same,"viability, T/C",[35],47.6%
same,"viability, T/C",[36],90.8%
COc1cc(C2c3cc4c(cc3C(OC3OC5COC(C)OC5C(O)C3O)C3COC(=O)C23)OCO4)cc(OC)c1O (centres undefined) + Cc1cnc(CNC(=O)c2c(=O)c3ccc(N4CCCN(C)CC4)nc3n3c2sc2ccccc23)cn1,IC50,second compound 0.0316 µM,> 10 µM
same,IC50,second compound 0.1 µM,> 10 µM
same,IC50,second compound 0.316 µM,8.09 µM
same,IC50,second compound 1 µM,> 10 µM
same,IC50,second compound 3.16 µM,5.35 µM
same,IC50,second compound 10 µM,< 0.0316 µM
same,"viability, T/C",[1],90%
same,"viability, T/C",[2],94.6%
same,"viability, T/C",[3],94.9%
same,"viability, T/C",[4],105%
same,"viability, T/C",[5],59.7%
same,"viability, T/C",[6],83.3%
same,"viability, T/C",[7],93.7%
same,"viability, T/C",[8],115%
same,"viability, T/C",[9],86.5%
same,"viability, T/C",[10],79.9%
same,"viability, T/C",[11],80.4%
same,"viability, T/C",[12],64.4%
same,"viability, T/C",[13],59%
same,"viability, T/C",[14],69.9%
same,"viability, T/C",[15],103%
same,"viability, T/C",[16],63.8%
same,"viability, T/C",[17],71.9%
same,"viability, T/C",[18],45.1%
same,"viability, T/C",[19],80.4%
same,"viability, T/C",[20],51.6%
same,"viability, T/C",[21],62%
same,"viability, T/C",[22],58.7%
same,"viability, T/C",[23],55.2%
same,"viability, T/C",[24],61.8%
same,"viability, T/C",[25],57%
same,"viability, T/C",[26],60.3%
same,"viability, T/C",[27],66.5%
same,"viability, T/C",[28],55.7%
same,"viability, T/C",[29],49.5%
same,"viability, T/C",[30],47.7%
same,"viability, T/C",[31],52.8%
same,"viability, T/C",[32],40.8%
same,"viability, T/C",[33],56.4%
same,"viability, T/C",[34],41%
same,"viability, T/C",[35],42.5%
same,"viability, T/C",[36],74.1%

# Reference: PubChem BioAssay AID2060507 (Molecular Pharmacology Branch, DTP, NCI, 2025)
